Measurements published in BindingDB's records for patent US20250313563 (The Broad Institute, 2025).
Several values for one entry are separate records, joined by “and”; a condition that tells them apart may be missing. Identical values can stand only once.

Key:
[1] = biological target: Glycogen synthase kinase-3 beta (Homo sapiens, UniProt P49841); test: TR-FRET Assay
Method in brief: (§1)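 Signal is measured as TR-FRET between a terbium anti-phospho-Ser641 antibody and streptavidin-d2, added after an EDTA quench. Compounds are preincubated 30 min in assay buffer.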

[2] = biological target: Glycogen synthase kinase-3 alpha (Homo sapiens, UniProt P49840); test: TR-FRET Assay
Method in brief: as §1

Glycogen synthase kinase-3 alpha, sequence (P49840 whole entry): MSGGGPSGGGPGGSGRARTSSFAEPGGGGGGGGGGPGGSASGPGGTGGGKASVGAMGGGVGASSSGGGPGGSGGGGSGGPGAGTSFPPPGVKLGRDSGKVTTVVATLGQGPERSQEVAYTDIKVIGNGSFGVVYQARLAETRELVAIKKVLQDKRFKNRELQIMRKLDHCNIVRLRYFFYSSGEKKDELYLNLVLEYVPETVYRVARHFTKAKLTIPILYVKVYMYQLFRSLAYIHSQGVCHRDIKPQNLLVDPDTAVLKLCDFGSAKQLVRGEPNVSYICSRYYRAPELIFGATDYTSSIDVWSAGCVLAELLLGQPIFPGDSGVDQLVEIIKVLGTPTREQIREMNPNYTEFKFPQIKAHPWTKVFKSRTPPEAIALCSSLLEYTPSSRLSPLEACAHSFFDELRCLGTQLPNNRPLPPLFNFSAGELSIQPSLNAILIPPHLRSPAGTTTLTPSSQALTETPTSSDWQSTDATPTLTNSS
Glycogen synthase kinase-3 beta, sequence (P49841 whole entry): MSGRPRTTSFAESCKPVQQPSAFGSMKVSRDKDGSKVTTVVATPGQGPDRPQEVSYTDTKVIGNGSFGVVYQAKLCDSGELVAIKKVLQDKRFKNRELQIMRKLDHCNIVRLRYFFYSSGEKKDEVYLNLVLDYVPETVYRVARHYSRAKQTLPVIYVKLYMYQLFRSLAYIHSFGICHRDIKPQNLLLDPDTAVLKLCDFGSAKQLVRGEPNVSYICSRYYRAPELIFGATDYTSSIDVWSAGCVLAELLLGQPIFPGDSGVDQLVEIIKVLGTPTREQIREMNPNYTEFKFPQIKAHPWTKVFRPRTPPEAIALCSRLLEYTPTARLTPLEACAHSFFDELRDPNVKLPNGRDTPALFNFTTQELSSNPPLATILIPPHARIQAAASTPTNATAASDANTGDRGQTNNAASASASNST

Row | Structure (SMILES) | IC50 [1] | IC50 [2]
1 | CN1CCC2(CC1)C1=C(N=NC1)NC1=C2C(=O)CC(C)(C)C1 [US20250313563, Compound 826714] | > 5000 nM | > 5000 nM
2 | CCC1(c2cccc(N3C[C@H](C)C[C@H](C)C3)c2)C2=CN=NC2NC2=C1C(=O)CC(C)(C)C2 (stereo partly specified) [US20250313563, Compound 885237] | 1000 to 5000 nM | 100 to 1000 nM
3 | CC[C@]1(c2ccccc2)C2=CN=NC2NC2=C1C(=O)[C@H](C)C[C@@H]2C (stereo partly specified) [US20250313563, Compound 909216] | 100 to 1000 nM | 100 to 1000 nM
4 | CC[C@@]1(c2ccccc2)C2=CN=NC2NC2=C1C(=O)[C@@H](C)C[C@H]2C (stereo partly specified) [US20250313563, Compound 909218] | > 5000 nM | > 5000 nM
5 | CC[C@@]1(c2cccc(C(F)(F)F)c2)C2=CN=NC2NC2=C1C(=O)C[C@H](C)C2 (stereo partly specified) [US20250313563, Compound 810452] | 1000 to 5000 nM | 100 to 1000 nM
6 | CCC1(c2cccc(-c3ccnn3C)c2)C2=CN=NC2NC2=C1C(=O)CC(C)(C)C2 (stereo unspecified) [US20250313563, Compound 883852] | < 100 nM | < 100 nM
7 | CC1(C)CC(=O)C2=C(C1)NC1=C(CN=N1)[C@@]21COC2(CN(S(C)(=O)=O)C2)C1 [US20250313563, Compound 913057] | < 100 nM | < 100 nM
8 | CCC1(c2cccc(N3CCCCC3)c2)C2=C(CC(C)(C)CC2=O)NC2N=NC(C)=C21 (stereo unspecified) [US20250313563, Compound 877311] | < 100 nM | < 100 nM
9 | CCC1(c2cccc(N(C)c3nccn3C)c2)C2=CN=NC2NC2=C1C(=O)CC(C)(C)C2 (stereo unspecified) [US20250313563, Compound 885402] | 1000 to 5000 nM | 100 to 1000 nM
10 | CC1(C)CC(=O)C2=C(C1)NC1N=NC=C1C21CCCN(CC(F)(F)F)CC1 (stereo unspecified) [US20250313563, Compound 889576] | 100 to 1000 nM | 100 to 1000 nM
11 | CCC1(c2cccc(-c3ccnc(OC)c3)c2)C2=C(CC(C)(C)CC2=O)NC2N=NC(C)=C21 (stereo unspecified) [US20250313563, Compound 883985] | 100 to 1000 nM | < 100 nM
12 | CCC1(c2cccc(C(F)(F)F)c2)C2=CN=NC2NC2=C1C(=O)NC1(CCC1)C2 (stereo unspecified) [US20250313563, Compound 902202] | < 100 nM | < 100 nM
13 | CC[C@@]1(c2cc(-c3ccnc(C)c3)ccc2F)C2=CN=NC2NC2=C1C(=O)CC(C)(C)C2 (stereo partly specified) [US20250313563, Compound 909213] | > 5000 nM | > 5000 nM
14 | CCC1(c2cccc(N(C)C(=O)c3ccn(C)n3)c2)C2=CN=NC2NC2=C1C(=O)CC(C)(C)C2 (stereo unspecified) [US20250313563, Compound 917130] | 100 to 1000 nM | < 100 nM
15 | CC[C@]1(c2ccccc2)C2=C(CC(C)(C)CC2=O)NC2N=NC(Br)=C21 (stereo partly specified) [US20250313563, Compound 792341] | 100 to 1000 nM | 100 to 1000 nM
16 | CC1(C)CC(=O)C2=C(C1)NC1N=NC(CCC(F)(F)F)=C1[C@]2(C)c1ccccc1 (stereo partly specified) [US20250313563, Compound 856949] | < 100 nM | 100 to 1000 nM
17 | CC[C@@]1(c2cccc(-c3ccnn3C)c2)C2=CN=NC2NC2=C1C(=O)CC(C)(C)C2 (stereo partly specified) [US20250313563, Compound 911993] | 100 to 1000 nM | < 100 nM
18 | CC1(C)CC(=O)C2=C(C1)NC1=C(CN=N1)C2(C)c1cccc(Br)c1 (stereo unspecified) [US20250313563, Compound 789277] | 100 to 1000 nM | < 100 nM
19 | CC[C@]1(c2ccccc2)C2=CN=NC2NC2=C1C(=O)C[C@](C)(COC)C2 (stereo partly specified) [US20250313563, Compound 816875] | 1000 to 5000 nM | 100 to 1000 nM
20 | C[C@]1(c2ccccc2)C2=C(N=NC2)NC2=C1C(=O)CC1(CCCC1)C2 [US20250313563, Compound 792338] | 100 to 1000 nM | < 100 nM
21 | CC[C@]1(c2cccc(Br)c2)C2=CN=NC2NC2=C1C(=O)[C@@H](F)C(C)(C)C2 (stereo partly specified) [US20250313563, Compound 835315] | 1000 to 5000 nM | 100 to 1000 nM
22 | CC1(C)CC(=O)C2=C(C1)NC1N=NC(CCC(F)(F)F)=C1[C@@]21CCc2c(F)cccc21 (stereo partly specified) [US20250313563, Compound 874323] | 1000 to 5000 nM | 1000 to 5000 nM
23 | CC1(C)CC(=O)C2=C(C1)NC1=C(CN=N1)C2(c1ccccc1)c1ccccc1 [US20250313563, Compound 789461] | > 5000 nM | 1000 to 5000 nM
24 | CC1(C)CC(=O)C2=C(C1)NC1=C(CN=N1)C2(C)C [US20250313563, Compound 786065] | > 1670 nM | 1000 to 5000 nM
25 | CC1(C)CC(=O)C2=C(NC3N=NC=C3C23CCOCC3)[C@H]1F (stereo partly specified) [US20250313563, Compound 883833] | 1000 to 5000 nM | 100 to 1000 nM
26 | CCC1(c2cccc(C3CC4CCC(C3)O4)c2)C2=CN=NC2NC2=C1C(=O)CC(C)(C)C2 (stereo unspecified) [US20250313563, Compound 889622] | 100 to 1000 nM | 100 to 1000 nM

Other lines, results leading:

Row | IC50 [1] | IC50 [2] | Structure (SMILES)
27 | 100 to 1000 nM | < 100 nM | CCC1(c2cccc(N(C)c3cccc(F)n3)c2)C2=CN=NC2NC2=C1C(=O)CC(C)(C)C2 (stereo unspecified) [US20250313563, Compound 918274]
28 | 100 to 1000 nM and > 5000 nM | < 100 nM and 100 to 1000 nM | CC[C@@]1(c2cccc(-c3cnn(C)c3)c2)C2=CN=NC2NC2=C1C(=O)CC(C)(C)[C@@H]2F (stereo partly specified) [US20250313563, Compound 957511]
29 | 1000 to 5000 nM | 100 to 1000 nM | CC[C@]1(c2cccc(-c3cncn3C(C)C)c2)C2=CN=NC2NC2=C1C(=O)CC(C)(C)C2 (stereo partly specified) [US20250313563, Compound 945729]
30 | > 5000 nM | 100 to 1000 nM | CC[C@@]1(c2cccc(N(C)c3ncccn3)c2)C2=CN=NC2NC2=C1C(=O)NC(C)(C)C2 (stereo partly specified) [US20250313563, Compound 943965]
31 | < 100 nM | < 100 nM | CC(C)Oc1ccc(S(=O)(=O)N2CCC3(CC2)C2=C(N=NC2)NC2=C3C(=O)CC(C)(C)C2)cn1 [US20250313563, Compound 945676]
32 | 100 to 1000 nM | < 100 nM | CC1(C)CC(=O)C2=C(C1)NC1=C(CN=N1)C21CCN(S(=O)(=O)c2ccccc2C(F)(F)F)CC1 [US20250313563, Compound 945667]
33 | > 5000 nM | 1000 to 5000 nM | Cn1cc([C@H]2CC[C@@]3(CC2)C2=C(N=NC2)NC2=C3C(=O)CC(C)(C)C2)cn1 [US20250313563, Compound 949323]
34 | 100 to 1000 nM and > 5000 nM | < 100 nM and 100 to 1000 nM | CC[C@]1(c2cccc(-c3ccnn3C)c2)C2=CN=NC2NC2=C1C(=O)CC(C)(C)[C@@H]2F (stereo partly specified) [US20250313563, Compound 957506]
35 | > 5000 nM | 100 to 1000 nM | CC[C@]1(c2cccc(-c3ccnn3C3CC3(F)F)c2)C2=CN=NC2NC2=C1C(=O)NC(C)(C)C2 (stereo partly specified) [US20250313563, Compound 949518]
36 | 100 to 1000 nM | < 100 nM | CCC1(c2cccc(-c3cn(C)nc3C)c2)C2=CN=NC2NC2=C1C(=O)NC1(CCS(=O)(=O)CC1)C2 (stereo unspecified) [US20250313563, Compound 950813]
37 | 100 to 1000 nM | < 100 nM | CCC1(c2cccc(OC)c2)C2=C(CC(C)(C)NC2=O)NC2N=NC(C)=C21 (stereo unspecified) [US20250313563, Compound 948763]
38 | > 5000 nM | 100 to 1000 nM | CC[C@@]1(c2cccc(-c3ccnc(C)c3)c2)C2=CN=NC2NC2=C1C(=O)NC(C)(C)C2 (stereo partly specified) [US20250313563, Compound 927326]
39 | < 100 nM | < 100 nM | CC1(C)CC(=O)C2=C(C1)NC1=C(CN=N1)C21CCN(S(=O)(=O)c2ccc(C(F)F)cc2)CC1 [US20250313563, Compound 947248]
40 | > 5000 nM | 1000 to 5000 nM | CC[C@@]1(c2cccc(C(F)(F)F)c2)C2=CN=NC2NC2=C1C(=O)N(c1cnc(OC)nc1)CC2 (stereo partly specified) [US20250313563, Compound 949127]
41 | > 5000 nM | > 5000 nM | CC[C@@]1(c2cccc(-c3cc(C)nn3C)c2)C2=CN=NC2NC2=C1C(=O)NC(C)(C)C2 (stereo partly specified) [US20250313563, Compound 943967]
42 | 100 to 1000 nM | < 100 nM | CC[C@@]1(c2cccc(-c3ccnc(CCO)c3)c2)C2=CN=NC2NC2=C1C(=O)CC(C)(C)C2 (stereo partly specified) [US20250313563, Compound 947810]
43 | 100 to 1000 nM | < 100 nM | CCC1(c2cccc(-c3ccnc(OC)c3C)c2)C2=CN=NC2NC2=C1C(=O)CC(C)(C)C2 (stereo unspecified) [US20250313563, Compound 932628]
44 | > 5000 nM | 1000 to 5000 nM and > 5000 nM | CC[C@@]1(c2cccc(Cc3ncccn3)c2)C2=CN=NC2NC2=C1C(=O)CC(C)(C)C2 (stereo partly specified) [US20250313563, Compound 947499]
45 | > 5000 nM | > 5000 nM | CC[C@@]1(c2cccc(C(F)(F)F)c2)C2=C(N=NC2)NC2=C1C(=O)N(C)C2 [US20250313563, Compound 945368]
46 | > 5000 nM | > 5000 nM | CC[C@]1(c2cccc(-c3ccnc(C)c3)c2)C2=CN=NC2NC2=C1C(=O)[C@H](F)C(C)(C)C2 (stereo partly specified) [US20250313563, Compound 945485]
47 | 1000 to 5000 nM | 100 to 1000 nM | CC[C@@]1(c2cccc(-c3cnn(C4CCCCC4)c3)c2)C2=CN=NC2NC2=C1C(=O)NC(C)(C)C2 (stereo partly specified) [US20250313563, Compound 951707]
48 | 1000 to 5000 nM | 1000 to 5000 nM | CC[C@]1(c2cccc(NS(C)(=O)=O)c2)C2=CN=NC2NC2=C1C(=O)CC(C)(C)C2 (stereo partly specified) [US20250313563, Compound 927341]
49 | < 100 nM | < 100 nM | CC1(C)CC(=O)C2=C(C1)NC1=C(CN=N1)C21CN(c2ccccc2)C1 [US20250313563, Compound 948298]
50 | > 5000 nM | 100 to 1000 nM | CC[C@]1(c2ccccc2)C2=CN=NC2NC2=C1C(=O)C[C@]1(CCN(C)C1=O)C2 (stereo partly specified) [US20250313563, Compound 949760]
51 | 100 to 1000 nM | 100 to 1000 nM | COc1cccc(S(=O)(=O)N2CC[C@@]3(C2)C2=C(N=NC2)NC2=C3C(=O)CC(C)(C)C2)c1 [US20250313563, Compound 951789]
52 | < 100 nM and 1000 to 5000 nM | < 100 nM and 100 to 1000 nM | Cc1cc(S(=O)(=O)N2CCC3(CC2)C2=C(N=NC2)NC2=C3C(=O)CC(C)(C)C2)cc(C)n1 [US20250313563, Compound 947616]
53 | < 100 nM | < 100 nM | CC[C@]1(c2ccc(OC(C)C)cc2)C2=C(CC(C)(C)CC2=O)NC2N=NC(C(F)(F)F)=C21 (stereo partly specified) [US20250313563, Compound 947868]
